Residual activity data for 1 compound are collected here from ChEMBL document CHEMBL4507281, “Data for DCP probe BI-4394” (2021).

Holding throughout (settings): Compound concentration 10.0 uM
Experiment [1] deals with T1, Activin receptor type-1B (Homo sapiens) (UniProt P36896).
T1 sequence (whole entry): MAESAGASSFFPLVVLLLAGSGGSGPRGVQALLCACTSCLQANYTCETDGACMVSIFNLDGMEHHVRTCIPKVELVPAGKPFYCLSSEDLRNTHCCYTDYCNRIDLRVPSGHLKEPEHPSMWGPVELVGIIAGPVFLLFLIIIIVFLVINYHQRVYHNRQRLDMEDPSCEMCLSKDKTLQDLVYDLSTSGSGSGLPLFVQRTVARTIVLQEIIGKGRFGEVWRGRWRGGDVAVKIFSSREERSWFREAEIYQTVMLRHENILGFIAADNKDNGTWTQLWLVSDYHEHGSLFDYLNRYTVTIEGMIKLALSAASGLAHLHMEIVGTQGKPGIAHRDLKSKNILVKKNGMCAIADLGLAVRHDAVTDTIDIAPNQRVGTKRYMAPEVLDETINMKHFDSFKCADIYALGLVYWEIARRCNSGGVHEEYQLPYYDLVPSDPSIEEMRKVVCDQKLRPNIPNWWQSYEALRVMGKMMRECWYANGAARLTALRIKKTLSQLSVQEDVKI

The target in experiment [2] is Epidermal growth factor receptor (Homo sapiens) (UniProt P00533).
Sequence of Epidermal growth factor receptor (Homo sapiens) (P00533 whole entry): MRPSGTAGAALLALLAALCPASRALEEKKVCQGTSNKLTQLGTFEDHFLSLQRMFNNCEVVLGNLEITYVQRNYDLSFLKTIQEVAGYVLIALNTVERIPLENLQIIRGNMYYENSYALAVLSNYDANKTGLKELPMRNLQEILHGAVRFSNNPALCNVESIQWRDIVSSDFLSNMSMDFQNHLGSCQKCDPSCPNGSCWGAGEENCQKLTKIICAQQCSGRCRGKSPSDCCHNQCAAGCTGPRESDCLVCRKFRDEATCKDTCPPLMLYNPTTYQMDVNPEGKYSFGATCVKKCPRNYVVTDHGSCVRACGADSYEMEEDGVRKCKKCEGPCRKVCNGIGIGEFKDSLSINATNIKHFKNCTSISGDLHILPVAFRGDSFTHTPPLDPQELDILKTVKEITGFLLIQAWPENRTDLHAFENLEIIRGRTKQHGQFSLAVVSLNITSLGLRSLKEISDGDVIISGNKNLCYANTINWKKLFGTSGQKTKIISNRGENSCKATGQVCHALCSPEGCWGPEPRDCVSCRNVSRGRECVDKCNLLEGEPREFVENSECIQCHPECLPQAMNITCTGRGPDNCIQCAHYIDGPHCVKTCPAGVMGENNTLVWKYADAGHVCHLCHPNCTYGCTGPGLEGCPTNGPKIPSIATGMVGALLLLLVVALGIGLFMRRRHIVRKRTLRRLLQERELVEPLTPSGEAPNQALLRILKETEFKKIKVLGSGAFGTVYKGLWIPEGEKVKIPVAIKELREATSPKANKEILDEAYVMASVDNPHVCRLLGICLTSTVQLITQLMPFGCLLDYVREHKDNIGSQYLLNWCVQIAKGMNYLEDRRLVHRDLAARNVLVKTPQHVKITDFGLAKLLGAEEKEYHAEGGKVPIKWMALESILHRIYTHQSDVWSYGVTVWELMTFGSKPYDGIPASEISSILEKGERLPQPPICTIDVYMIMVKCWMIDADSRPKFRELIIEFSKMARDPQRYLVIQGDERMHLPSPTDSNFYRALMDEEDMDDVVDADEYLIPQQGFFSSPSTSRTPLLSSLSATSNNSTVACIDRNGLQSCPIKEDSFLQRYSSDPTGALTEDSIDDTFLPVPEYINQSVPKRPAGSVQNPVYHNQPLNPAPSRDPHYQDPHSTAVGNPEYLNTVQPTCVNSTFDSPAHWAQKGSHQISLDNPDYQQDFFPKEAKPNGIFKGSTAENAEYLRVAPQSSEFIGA
In experiment [3] the target is Fibroblast growth factor receptor 1 (Homo sapiens) (UniProt P11362).
Sequence of Fibroblast growth factor receptor 1 (Homo sapiens) (P11362 22-822 limits assumed): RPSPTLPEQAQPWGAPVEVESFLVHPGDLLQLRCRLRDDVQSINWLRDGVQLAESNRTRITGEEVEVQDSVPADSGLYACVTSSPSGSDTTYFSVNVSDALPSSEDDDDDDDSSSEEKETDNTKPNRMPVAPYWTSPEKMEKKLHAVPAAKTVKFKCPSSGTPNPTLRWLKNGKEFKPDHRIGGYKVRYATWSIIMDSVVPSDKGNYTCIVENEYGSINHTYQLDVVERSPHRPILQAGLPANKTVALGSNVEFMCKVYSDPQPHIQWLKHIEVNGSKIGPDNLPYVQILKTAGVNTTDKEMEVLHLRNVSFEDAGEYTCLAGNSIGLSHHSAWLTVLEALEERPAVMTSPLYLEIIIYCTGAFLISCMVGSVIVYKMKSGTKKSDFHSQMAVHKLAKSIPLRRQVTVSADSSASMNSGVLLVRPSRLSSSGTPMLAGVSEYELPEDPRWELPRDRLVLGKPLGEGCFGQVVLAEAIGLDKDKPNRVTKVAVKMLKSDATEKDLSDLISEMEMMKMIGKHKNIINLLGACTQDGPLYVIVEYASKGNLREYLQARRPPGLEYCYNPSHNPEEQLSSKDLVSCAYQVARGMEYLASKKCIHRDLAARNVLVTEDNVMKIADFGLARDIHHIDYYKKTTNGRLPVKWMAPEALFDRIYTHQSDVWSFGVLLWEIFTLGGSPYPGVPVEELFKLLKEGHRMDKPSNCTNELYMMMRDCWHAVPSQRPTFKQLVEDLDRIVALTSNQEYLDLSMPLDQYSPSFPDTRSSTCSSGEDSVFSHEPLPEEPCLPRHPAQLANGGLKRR
Experiment [4] addresses Vascular endothelial growth factor receptor 2 (Homo sapiens) (UniProt P35968).
Experiment [5] addresses Mitogen-activated protein kinase 14 (Homo sapiens) (UniProt Q16539).
Experiment [6] addresses T2, Serine/threonine-protein kinase Nek1 (Homo sapiens) (UniProt Q96PY6).
T2 sequence (whole entry): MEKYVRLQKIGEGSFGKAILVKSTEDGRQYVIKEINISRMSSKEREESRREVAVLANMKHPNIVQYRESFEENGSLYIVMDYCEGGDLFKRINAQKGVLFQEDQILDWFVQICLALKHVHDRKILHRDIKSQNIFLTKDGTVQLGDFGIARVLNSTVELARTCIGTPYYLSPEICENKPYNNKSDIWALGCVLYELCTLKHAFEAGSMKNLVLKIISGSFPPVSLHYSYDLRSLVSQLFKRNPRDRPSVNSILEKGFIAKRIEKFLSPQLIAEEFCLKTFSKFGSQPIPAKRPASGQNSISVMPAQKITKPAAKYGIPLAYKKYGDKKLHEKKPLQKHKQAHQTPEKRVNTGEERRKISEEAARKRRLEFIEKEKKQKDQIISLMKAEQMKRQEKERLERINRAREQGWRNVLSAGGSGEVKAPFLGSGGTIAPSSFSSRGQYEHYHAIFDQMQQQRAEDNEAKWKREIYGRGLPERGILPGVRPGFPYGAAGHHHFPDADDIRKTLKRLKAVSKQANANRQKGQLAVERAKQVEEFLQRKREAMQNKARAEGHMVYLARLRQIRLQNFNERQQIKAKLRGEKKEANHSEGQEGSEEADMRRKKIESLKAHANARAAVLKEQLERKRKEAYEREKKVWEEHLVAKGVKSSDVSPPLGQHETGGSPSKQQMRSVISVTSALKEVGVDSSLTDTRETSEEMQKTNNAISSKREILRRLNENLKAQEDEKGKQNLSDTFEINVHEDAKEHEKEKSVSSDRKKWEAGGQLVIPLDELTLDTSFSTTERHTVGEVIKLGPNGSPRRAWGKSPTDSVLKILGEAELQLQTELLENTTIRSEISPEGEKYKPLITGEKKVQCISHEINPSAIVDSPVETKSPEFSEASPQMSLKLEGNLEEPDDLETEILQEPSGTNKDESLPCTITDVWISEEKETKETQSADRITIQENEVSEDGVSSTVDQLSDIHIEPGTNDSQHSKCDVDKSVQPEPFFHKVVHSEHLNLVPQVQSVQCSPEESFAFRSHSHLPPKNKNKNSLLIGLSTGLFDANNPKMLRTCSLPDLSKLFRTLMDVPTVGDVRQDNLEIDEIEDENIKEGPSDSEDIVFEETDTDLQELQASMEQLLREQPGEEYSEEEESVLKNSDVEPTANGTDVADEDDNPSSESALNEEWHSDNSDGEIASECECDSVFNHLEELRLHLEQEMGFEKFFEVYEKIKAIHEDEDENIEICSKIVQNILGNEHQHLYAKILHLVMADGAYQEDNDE

Experiment [7] addresses cAMP-dependent protein kinase catalytic subunit alpha (Homo sapiens) (UniProt P17612).
Experiment [8] has as its target Ribosomal protein S6 kinase alpha-3 (Homo sapiens) (UniProt P51812).
Experiment [9] deals with Ribosomal protein S6 kinase beta-1 (Homo sapiens) (UniProt P23443).
Sequence of Ribosomal protein S6 kinase beta-1 (Homo sapiens) (P23443 whole entry, looked up): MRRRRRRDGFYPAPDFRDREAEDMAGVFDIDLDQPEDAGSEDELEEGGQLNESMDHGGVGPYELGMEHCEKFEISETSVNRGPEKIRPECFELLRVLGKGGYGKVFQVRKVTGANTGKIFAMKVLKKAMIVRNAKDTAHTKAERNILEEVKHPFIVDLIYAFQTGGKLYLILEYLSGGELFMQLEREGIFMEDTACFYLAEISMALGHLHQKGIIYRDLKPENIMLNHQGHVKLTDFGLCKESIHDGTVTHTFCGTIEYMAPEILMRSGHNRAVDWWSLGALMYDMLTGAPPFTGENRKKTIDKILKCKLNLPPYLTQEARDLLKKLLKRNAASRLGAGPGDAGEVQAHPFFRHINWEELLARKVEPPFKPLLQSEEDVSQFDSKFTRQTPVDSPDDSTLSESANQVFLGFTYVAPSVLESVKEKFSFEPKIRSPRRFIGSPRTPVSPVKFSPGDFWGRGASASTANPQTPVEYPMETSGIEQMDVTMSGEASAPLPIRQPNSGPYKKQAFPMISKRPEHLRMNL

Sequence of Mitogen-activated protein kinase 14 (Homo sapiens) (Q16539 whole entry): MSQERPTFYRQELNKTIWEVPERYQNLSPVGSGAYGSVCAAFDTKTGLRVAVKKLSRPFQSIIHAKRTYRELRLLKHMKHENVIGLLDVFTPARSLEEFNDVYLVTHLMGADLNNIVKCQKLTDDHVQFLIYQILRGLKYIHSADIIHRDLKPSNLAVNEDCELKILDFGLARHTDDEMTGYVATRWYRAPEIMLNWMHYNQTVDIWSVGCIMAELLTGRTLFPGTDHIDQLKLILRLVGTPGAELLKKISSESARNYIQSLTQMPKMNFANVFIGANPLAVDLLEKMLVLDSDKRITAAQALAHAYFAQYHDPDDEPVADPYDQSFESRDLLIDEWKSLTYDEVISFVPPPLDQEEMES
Sequence of Ribosomal protein S6 kinase alpha-3 (Homo sapiens) (P51812 whole entry): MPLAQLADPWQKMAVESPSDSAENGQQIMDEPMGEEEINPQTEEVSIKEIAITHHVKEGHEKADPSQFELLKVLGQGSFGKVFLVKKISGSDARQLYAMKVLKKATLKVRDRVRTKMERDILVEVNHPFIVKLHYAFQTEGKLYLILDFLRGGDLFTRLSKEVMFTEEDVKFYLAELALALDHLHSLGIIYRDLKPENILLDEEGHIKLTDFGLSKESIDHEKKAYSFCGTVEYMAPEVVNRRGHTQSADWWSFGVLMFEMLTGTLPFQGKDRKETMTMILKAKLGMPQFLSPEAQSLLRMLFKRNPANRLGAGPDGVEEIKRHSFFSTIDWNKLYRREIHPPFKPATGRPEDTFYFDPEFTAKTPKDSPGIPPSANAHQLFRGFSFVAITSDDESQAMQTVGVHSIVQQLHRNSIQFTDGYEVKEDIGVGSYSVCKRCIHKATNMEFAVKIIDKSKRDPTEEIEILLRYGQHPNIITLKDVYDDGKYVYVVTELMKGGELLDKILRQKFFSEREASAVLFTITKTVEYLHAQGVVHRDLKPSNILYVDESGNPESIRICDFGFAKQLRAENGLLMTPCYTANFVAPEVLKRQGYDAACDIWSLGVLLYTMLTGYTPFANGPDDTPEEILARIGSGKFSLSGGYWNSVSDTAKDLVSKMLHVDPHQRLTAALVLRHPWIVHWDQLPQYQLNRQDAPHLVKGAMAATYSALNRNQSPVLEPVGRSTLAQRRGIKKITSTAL
Sequence of Vascular endothelial growth factor receptor 2 (Homo sapiens) (P35968 whole entry): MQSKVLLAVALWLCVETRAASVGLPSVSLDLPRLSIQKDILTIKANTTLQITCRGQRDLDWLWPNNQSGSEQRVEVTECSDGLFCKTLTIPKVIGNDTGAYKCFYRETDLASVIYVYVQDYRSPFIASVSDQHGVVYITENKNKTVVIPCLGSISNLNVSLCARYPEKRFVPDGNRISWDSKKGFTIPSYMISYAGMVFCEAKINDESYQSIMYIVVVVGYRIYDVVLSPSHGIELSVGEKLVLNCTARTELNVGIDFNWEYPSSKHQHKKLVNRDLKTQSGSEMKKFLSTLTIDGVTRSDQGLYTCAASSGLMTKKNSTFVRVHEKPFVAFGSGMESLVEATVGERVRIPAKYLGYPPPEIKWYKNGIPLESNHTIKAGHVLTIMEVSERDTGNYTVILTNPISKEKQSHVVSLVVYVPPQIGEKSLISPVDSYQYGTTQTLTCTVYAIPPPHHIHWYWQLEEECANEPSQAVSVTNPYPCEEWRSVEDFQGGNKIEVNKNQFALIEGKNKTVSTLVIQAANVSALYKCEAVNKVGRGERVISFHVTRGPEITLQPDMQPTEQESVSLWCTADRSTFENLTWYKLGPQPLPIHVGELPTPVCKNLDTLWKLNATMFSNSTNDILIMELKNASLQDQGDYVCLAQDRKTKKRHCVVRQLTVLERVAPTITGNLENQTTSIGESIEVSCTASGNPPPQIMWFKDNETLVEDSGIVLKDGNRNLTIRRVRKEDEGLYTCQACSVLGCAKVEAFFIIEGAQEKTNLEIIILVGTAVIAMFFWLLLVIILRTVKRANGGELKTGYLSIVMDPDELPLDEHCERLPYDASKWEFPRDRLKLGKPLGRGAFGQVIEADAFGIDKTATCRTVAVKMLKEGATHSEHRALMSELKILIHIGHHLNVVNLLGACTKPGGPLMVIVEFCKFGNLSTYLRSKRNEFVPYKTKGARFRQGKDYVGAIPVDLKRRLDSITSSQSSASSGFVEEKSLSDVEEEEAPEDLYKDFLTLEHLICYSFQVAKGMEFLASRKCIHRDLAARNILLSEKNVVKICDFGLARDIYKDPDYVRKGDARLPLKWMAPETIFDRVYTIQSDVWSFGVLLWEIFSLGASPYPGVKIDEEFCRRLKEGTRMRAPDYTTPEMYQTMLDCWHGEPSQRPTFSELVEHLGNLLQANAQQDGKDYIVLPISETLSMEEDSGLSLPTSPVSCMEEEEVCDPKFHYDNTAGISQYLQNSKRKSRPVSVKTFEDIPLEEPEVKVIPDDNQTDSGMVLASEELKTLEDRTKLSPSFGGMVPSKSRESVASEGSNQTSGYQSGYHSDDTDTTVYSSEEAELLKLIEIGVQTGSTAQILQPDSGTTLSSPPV

With `CCOC(=O)c1cc2cc(-c3cc(C(=O)NCc4ccc(C(=O)O)cc4)nn3C)ccc2[nH]1` [BI 4394], the residual activity in experiment [1] was 100%; in experiment [2], 99%; in [3] it was 94%; in experiment [4], 17%; in experiment [5], 6%; in experiment [6], 49%. The residual activity in experiment [7] is 10%; in [8], 5%; in [9] it was 89%.
